According to patent publication US20210052703A1 (SHANGHAI BENEMAE PHARMACEUTICAL CORPORATION, priority 2018, published 2021):

System: patients with type 2 diabetes
Test: trial 5C: Beinaglutide with metformin, multicenter, type 2 diabetes
Type: in vivo, human
Details: control group (metformin alone group); 12 weeks of treatment
From the text: Note: Covariance analysis was used for comparison between groups. The dependent variable was the change in body weight relative to baseline, and the covariate was baseline. Body weight change from baseline=post-treatment−baseline. Data from 5C test data.

CN(C)C(=N)N=C(N)N [metformin, reference compound]
proportion of subjects with weight loss from the baseline ≥3%: 27.27% | proportion of subjects with weight loss ≥5%: 10.39%
